Earlier results as cited in patent US6652866B1 (priority 1997, dated 2003).

Tested on: scrapie
Settings: hamsters

## C[C@@H]1[C@H](O)[C@@H](C)/C=C/C=C/C=C/C=C/C=C/C=C/C=C/[C@H](O[C@@H]2O[C@H](C)[C@@H](O)[C@H](N)[C@@H]2O)C[C@@H]2O[C@](O)(C[C@@H](O)C[C@@H](O)[C@H](O)CC[C@@H](O)C[C@@H](O)CC(=O)O[C@H]1C)C[C@H](O)[C@H]2C(=O)O [amphoteracin-b]
  incubation time of scrapie: prolonged the incubation time
  prevention of onset of neurological symptoms, neuronal destruction and death: ineffective
